From patent US20130005718A1 (priority 2009, published 2013)
pEC50: −log10 of the molar value. Several values for one entry are separate records, joined by “and”; a condition that tells them apart may be missing. Equal entries are not always repeated. Entries after “also recorded” stand apart in the source; their conditions may differ. Where two headings read alike, the source gives them in different places.

How the values were obtained:
[1] = system: PNL-induced mechanical allodynia and hyperalgesia; experiment: Von Frey fiber test after partial sciatic nerve ligation (PNL); format: in vivo, C57 Black/6J mice
[2] = cited from earlier work
[3] = biological target: HCN3 (Homo sapiens, UniProt Q9P1Z3); conditions: 20 μM, n=6
Method: (§1) cDNA encoding murine (HCN1, 2 and 4) and human (HCN3) HCN channels were subcloned into pGH19 (HCN1 and 4) or pGHE (HCN2 and HCN3) vectors and amplified in STBL2 cells (Invitrogen Corporation, Carlsbad, Calif.). cRNA was transcribed from NheI (HCN1, HCN3 and HCN4) or SphI (HCN2) linearized DNA using T7 RNA polymerase (Message Machine; Ambion, Houston, Tex.). 11-50 ng RNA was injected into each Xenopus oocyte.
(§2) Recordings were made from Xenopus oocytes 2-5 days after cRNA injection. Cells were maintained in L-15 media without ficoll (Specialty Media, Phillipsburg, N.J.) at 17° C. until use.
(§3) Two microelectrode voltage clamp (TEVC) data, acquired using a Warner Instruments (Hamden, Conn.) OC-725C amplifier, were recorded with Pulse software (HEKA Elektronik, Lambrecht/Pfalz, Germany) following filtering of the wide bandwidth output of the clamp at 2.5 kHz (with a Frequency Devices 902 8-pole Bessel filter) and digitization at 5 kHz using an ITC-18 interface (Instrutech Corporation, Port Washington, N.Y.).
(§4) Microelectrodes were fabricated from 1B120-F4 borosilicate glass (World Precision Instruments, Sarasota, Fla.) and had resistances of 0.1-0.5 MΩ (I passing) and 1-4 MΩ (V sensing) when filled with 3 M KCl. The Ag—AgCl ground wire(s) of the active virtual ground circuit were connected to the bath solution by 3M KCl-2% agar salt bridges placed downstream of, but close to, the oocyte. Recordings were obtained at room temperature (22-24° C.).

[4] = biological target: HCN4 (Mus musculus, UniProt O70507); conditions: 20 μM, n=4
Method: as §1, §2, §3, §4

[5] = biological target: HCN2 (Mus musculus, UniProt O88703); conditions: 20 μM, n=6
Method: as §1, §2, §3, §4

[6] = biological target: T1, HCN1 channels (Mus musculus, UniProt O88704); experiment: Two-electrode voltage clamp (TEVC) of HCN1 channel gating in Xenopus oocytes; format: cell-based, murine; conditions: for HCN isoform preference (words): HCN1 versus HCN2, 3 or 4
T1 construct: expressed in transfected cells; host or cells: Xenopus oocytes (cRNA injection)

[7] = variously reported; cited from earlier work
[8] = system: PNL-induced thermal hyperalgesia; experiment: Hind paw withdrawal latency (HPWL) to heat source after PNL; format: in vivo, C57 Black/6J mice; conditions: i.p., 15% heat stimulus
[9] = system: righting reflex; conditions: i.p. cumulative up to 60 mg/kg
[10] = system: righting reflex; conditions: cited from earlier work
[11] = in vivo; cited from earlier work
[12] = system: GABAA-Rs; conditions: cited from earlier work
[13] = HCN1 V1/2 dose-response, relative to 2,6-DTBP

T1 sequence (O88704 whole entry, canonical isoform): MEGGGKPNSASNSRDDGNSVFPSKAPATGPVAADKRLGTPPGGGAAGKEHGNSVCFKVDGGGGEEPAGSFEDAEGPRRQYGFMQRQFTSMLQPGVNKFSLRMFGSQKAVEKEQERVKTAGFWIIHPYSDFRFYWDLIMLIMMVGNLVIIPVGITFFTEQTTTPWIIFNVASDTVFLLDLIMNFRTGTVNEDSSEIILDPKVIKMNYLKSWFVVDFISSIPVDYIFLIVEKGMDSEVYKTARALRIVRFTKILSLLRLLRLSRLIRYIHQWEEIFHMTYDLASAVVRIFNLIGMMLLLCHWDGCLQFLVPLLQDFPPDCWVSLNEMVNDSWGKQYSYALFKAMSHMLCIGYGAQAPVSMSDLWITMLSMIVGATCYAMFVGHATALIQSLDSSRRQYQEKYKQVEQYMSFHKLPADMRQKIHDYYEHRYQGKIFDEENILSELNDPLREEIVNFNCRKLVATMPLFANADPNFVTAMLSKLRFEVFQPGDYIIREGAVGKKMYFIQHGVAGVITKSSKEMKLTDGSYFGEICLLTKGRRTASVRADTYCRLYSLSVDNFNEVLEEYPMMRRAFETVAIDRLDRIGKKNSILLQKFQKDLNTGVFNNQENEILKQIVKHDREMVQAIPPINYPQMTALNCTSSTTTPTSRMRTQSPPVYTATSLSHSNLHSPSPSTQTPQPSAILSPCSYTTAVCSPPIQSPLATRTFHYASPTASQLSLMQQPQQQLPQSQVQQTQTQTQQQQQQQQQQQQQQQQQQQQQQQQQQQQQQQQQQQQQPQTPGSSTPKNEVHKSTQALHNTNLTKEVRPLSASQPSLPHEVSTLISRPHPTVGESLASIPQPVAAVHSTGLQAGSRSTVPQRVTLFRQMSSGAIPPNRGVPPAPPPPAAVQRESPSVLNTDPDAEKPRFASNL
Sequence of HCN4 (O70507 whole entry): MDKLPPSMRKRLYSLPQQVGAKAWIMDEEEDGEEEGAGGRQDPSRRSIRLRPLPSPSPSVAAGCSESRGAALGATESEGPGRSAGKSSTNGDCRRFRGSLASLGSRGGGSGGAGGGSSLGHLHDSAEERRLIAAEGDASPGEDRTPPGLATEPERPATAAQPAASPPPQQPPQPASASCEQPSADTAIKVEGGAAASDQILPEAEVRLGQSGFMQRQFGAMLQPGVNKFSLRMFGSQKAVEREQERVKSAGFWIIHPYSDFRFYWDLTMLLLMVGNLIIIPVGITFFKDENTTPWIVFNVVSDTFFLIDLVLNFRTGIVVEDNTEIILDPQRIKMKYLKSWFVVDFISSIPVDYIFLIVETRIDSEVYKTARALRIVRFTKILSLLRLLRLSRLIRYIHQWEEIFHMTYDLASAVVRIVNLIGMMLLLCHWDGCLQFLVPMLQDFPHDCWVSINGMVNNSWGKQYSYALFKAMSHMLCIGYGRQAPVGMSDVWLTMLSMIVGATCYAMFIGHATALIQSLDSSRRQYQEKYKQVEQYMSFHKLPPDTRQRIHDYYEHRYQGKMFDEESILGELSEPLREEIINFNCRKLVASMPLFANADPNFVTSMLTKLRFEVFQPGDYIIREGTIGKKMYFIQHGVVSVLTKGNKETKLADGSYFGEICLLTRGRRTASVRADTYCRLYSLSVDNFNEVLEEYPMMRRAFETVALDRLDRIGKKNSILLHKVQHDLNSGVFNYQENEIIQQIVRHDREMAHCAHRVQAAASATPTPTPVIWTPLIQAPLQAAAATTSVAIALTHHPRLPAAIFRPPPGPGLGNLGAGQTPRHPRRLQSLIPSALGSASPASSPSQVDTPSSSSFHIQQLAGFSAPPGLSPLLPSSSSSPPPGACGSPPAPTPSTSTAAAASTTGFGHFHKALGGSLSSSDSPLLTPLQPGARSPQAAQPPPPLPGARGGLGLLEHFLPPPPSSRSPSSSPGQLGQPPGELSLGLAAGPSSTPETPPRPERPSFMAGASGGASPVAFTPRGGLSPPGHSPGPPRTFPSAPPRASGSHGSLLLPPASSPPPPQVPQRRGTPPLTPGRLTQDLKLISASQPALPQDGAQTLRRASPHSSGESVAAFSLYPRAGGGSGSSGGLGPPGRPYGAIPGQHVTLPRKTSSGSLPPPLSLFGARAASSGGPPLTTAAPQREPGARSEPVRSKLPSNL
Sequence of HCN3 (Q9P1Z3 whole entry): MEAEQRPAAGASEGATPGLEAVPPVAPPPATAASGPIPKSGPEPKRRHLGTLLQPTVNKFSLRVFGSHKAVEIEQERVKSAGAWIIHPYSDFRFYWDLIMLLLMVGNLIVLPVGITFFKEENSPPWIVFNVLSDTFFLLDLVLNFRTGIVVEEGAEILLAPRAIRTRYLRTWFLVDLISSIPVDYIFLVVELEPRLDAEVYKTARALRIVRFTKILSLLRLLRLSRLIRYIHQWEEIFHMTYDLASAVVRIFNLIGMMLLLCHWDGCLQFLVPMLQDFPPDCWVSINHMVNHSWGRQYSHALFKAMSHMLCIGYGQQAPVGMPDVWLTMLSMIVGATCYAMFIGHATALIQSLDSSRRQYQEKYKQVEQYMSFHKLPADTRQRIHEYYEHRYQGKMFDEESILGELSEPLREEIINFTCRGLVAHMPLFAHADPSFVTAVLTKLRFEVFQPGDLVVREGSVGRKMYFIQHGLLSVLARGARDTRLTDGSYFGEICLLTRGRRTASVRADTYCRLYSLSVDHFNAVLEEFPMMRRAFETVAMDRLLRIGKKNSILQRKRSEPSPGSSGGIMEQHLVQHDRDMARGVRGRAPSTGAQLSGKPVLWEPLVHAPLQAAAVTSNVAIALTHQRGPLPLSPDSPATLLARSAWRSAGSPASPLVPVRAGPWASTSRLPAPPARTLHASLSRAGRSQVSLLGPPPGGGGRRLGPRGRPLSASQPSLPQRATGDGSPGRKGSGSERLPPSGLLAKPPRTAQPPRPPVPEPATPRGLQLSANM
Sequence of HCN2 (O88703 whole entry): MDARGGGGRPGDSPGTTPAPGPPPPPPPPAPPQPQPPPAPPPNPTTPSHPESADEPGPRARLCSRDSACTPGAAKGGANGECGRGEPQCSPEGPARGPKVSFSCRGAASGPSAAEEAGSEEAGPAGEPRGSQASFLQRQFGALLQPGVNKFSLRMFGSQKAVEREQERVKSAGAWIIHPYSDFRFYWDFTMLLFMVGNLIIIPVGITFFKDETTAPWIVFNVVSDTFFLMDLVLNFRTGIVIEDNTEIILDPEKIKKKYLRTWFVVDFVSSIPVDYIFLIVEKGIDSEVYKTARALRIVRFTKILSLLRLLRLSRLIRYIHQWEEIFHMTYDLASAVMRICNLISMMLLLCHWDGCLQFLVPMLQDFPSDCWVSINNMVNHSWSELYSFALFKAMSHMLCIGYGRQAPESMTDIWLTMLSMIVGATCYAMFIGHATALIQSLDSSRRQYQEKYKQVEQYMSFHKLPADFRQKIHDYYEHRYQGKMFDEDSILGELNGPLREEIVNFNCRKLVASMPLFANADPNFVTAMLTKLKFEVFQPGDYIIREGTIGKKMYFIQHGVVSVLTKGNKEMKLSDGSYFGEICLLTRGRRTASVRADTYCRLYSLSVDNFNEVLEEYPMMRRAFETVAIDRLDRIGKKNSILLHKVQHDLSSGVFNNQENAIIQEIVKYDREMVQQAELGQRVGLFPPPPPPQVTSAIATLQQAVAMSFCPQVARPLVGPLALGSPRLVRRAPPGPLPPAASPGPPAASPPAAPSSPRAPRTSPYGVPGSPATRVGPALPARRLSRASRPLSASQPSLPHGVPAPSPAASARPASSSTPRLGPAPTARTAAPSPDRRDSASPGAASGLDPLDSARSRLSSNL

## CC(C)c1cccc(C(C)C)c1O [propofol]
[1]; 20 mg/kg i.p.
  difference between PW IPSI and PW CONTRA: significantly reduced
[1]; 60 mg/kg i.p. cumulative
  PW IPSI response: indistinguishable from the control value of PW CONTRA
[1]; 20 to 60 mg/kg i.p.
  effect on PW CONTRA, mechanical nociception: no statistically significant effect
[1]; i.p.
  neuropathic analgesia occurs at doses lower than hypnosis/anesthesia: 3-10 fold and 3 to 10 fold
[1]; i.p. cumulative dosing, post-PNL mice
  mechanical hyperalgesia/allodynia in ipsilateral paw: markedly reduced the mechanical hyperalgesia observed in the ipsilateral paw; also recorded: selectively suppresses partial sciatic nerve ligation (PNL)-induced mechanical allodynia and hyperalgesia
[1]; i.p., 2.5 to 4 g fibers averaged, 3.3 before drug, unity = complete amelioration
  PW IPSI as a function of control PW CONTRA (ratio) after drug: 1.6
[1]; subhypnotic i.p. doses, 2.5 to 4 g fibers averaged
  reversal of the neuropathic phenotype: about 75%
[1]; threshold set at PW of 0.1
  mechanical threshold, Logit transformation (allodynia, words): selectively restored the mechanical threshold to that observed in the uninjured paw
[2]; Engdahl et al., 1998
  Plasma [propofol] Total: 2.2 µg/mL
[2]; during general anesthesia
  steady-state free concentration in the plasma: ~1 µM
[3]
  ΔV1/2 of HCN3: −0.6 mV
[4]
  ΔV1/2 of HCN4: 0.1 mV
[5]
  ΔV1/2 of HCN2: −9.1 mV
[6]; EC50 for hyperpolarization of V1/2 of HCN1 gating (Hill fit), 20 min incubation, Xenopus oocytes, TEVC
  pEC50: 4.89 to 5.15 and 4.89 and ~4.89
[6]
  HCN isoform preference (words): preferentially inhibits HCN1 with little efficacy against HCN2, 3 or 4 channels
[6]; Hill fit of dose-response
  apparent stoichiometry h (Hill coefficient): 1.1
[6]; versus DMSO control
  concentration at which shift in HCN1 V1/2 was significant: ≥ 3 µM
Engdahl et al., 1998, calculated with MW 178.3
  Plasma [propofol] Total: 12.3 µM
Estimated from 3 to 10 fold lower doses than anesthesia
  estimated serum free concentration evoking analgesia: 0.1 to 0.3 µM
From Table 2
  CSF concentration required for anesthesia relative to plasma: approximately one-tenth
[7]
  aqueous solubility limit: 864 to 1740 µM
[8]
  thermal hyperalgesia, ipsilateral HPWL (words): powerfully and preferentially relieved neuropathic thermal hyperalgesia; also recorded: relieve the neuropathic behavior; also recorded: selectively ameliorate PNL-induced thermal hyperalgesia
  thermal nociception, contralateral HPWL: without significantly altering nociceptive behavior
[9]
  loss of righting reflex: No animals lost their righting reflex
[10]; i.p.
  i.p. dose required for obviation of righting reflex: greater than 100 mg/kg
[10]; mice, i.v.
  intravenous dose for anesthesia: 5 mg/kg

## CCC(C)c1ccc(O)c(C(C)CC)c1 (stereo not shown) [2,4-DSBP, 2,4-di-sec-butylphenol]
[11]
  anesthetic activity: potent anesthetics
[6]; [13]
  offset of the 2,6-DTBP Hill fit line needed to describe the data: 23 fold
[12]
  allosteric modulation of GABAA-Rs: effective agonist of GABAA-Rs; also recorded: potent allosteric activators of the chloride channels

## CCC(C)c1cccc(C(C)CC)c1O (stereo not shown) [2,6-DSBP, 2,6-di-sec-butylphenol]
[11]
  anesthetic activity: potent anesthetics
[6]
  HCN1 antagonism: weak HCN1 antagonist
[6]; [13]
  offset of the 2,6-DTBP Hill fit line needed to describe the data: 15 fold
[12]
  allosteric modulation of GABAA-Rs: potent allosteric activators of the chloride channels

## CC(C)(C)c1ccc(O)c(C(C)(C)C)c1 [2,4-DTBP, 2,4-di-tert-butylphenol]
[6]
  HCN1 antagonism: effective antagonist of HCN1
  offset of the 2,6-DTBP Hill fit line needed to describe the data: 2 fold
  HCN isoform preference (words): preferentially inhibit HCN1 with little efficacy against HCN2, 3 or 4 channels
[12]
  allosteric modulation of GABAA-Rs: ineffective
